Assay results from the NIST ThermoML archive (doi:10.1021/je060271a).
“And” between values parts separate entries of the source, which are not always exact repeats. Equal values may be shown once. ± gives the expanded uncertainty stated by the source.

Details: 343.16 K, Liquid, Vibrating tube method

CCCCCC(=O)OCC(COC(=O)CCCCC)(COC(=O)CCCCC)COC(=O)CCCCC [pentaerythritol tetrahexanoate]
mass density (12946 kPa): 966.8 ± 1.2 kg/m3
mass density (12969 kPa): 966.9 ± 1.2 kg/m3
mass density (13446 kPa): 967.2 ± 1.2 kg/m3
mass density (13485 kPa): 967.3 ± 1.2 kg/m3
mass density (13510 kPa): 967.1 ± 1.2 kg/m3
mass density (13521 kPa): 967.2 ± 1.2 kg/m3
mass density (13524 kPa): 967.2 ± 1.2 kg/m3
mass density (13527 kPa): 967.3 ± 1.2 kg/m3
mass density (13530 kPa): 967.2 ± 1.2 kg/m3
mass density (13534 kPa): 967.1 ± 1.2 kg/m3
mass density (13539 kPa): 967.2 ± 1.2 kg/m3
mass density (13542 kPa): 967.2 ± 1.2 kg/m3
mass density (13545 kPa): 967.2 ± 1.2 kg/m3
mass density (13548 kPa): 967.2 ± 1.2 kg/m3
mass density (13550 kPa): 967.1 ± 1.2 kg/m3
mass density (13554 kPa): 967.3 ± 1.2 kg/m3
mass density (13556 kPa): 967.3 ± 1.2 kg/m3
mass density (13562 kPa): 967.2 ± 1.2 kg/m3
mass density (13571 kPa): 967.4 ± 1.2 kg/m3
mass density (13578 kPa): 967.2 ± 1.2 kg/m3
mass density (13593 kPa): 967.3 ± 1.2 kg/m3
mass density (13604 kPa): 967.2 ± 1.2 kg/m3 and 967.4 ± 1.2 kg/m3
mass density (13605 kPa): 967.3 ± 1.2 kg/m3 and 967.2 ± 1.2 kg/m3
mass density (13606 kPa): 967.2 ± 1.2 kg/m3 and 967.3 ± 1.2 kg/m3
mass density (13607 kPa): 967.2 ± 1.2 kg/m3
mass density (13608 kPa): 967.2 ± 1.2 kg/m3 and 967.3 ± 1.2 kg/m3 and 967 ± 1.2 kg/m3
mass density (13609 kPa): 967.3 ± 1.2 kg/m3
mass density (13610 kPa): 967.3 ± 1.2 kg/m3
mass density (13612 kPa): 967.2 ± 1.2 kg/m3
mass density (13620 kPa): 967.2 ± 1.2 kg/m3
mass density (13632 kPa): 967.3 ± 1.2 kg/m3
mass density (13650 kPa): 967.3 ± 1.2 kg/m3
mass density (13671 kPa): 967.3 ± 1.2 kg/m3
mass density (13695 kPa): 967.3 ± 1.2 kg/m3
mass density (13719 kPa): 967.4 ± 1.2 kg/m3
mass density (13749 kPa): 967.3 ± 1.2 kg/m3
mass density (13774 kPa): 967.4 ± 1.2 kg/m3
mass density (13798 kPa): 967.5 ± 1.2 kg/m3
mass density (13828 kPa): 967.5 ± 1.2 kg/m3
mass density (13853 kPa): 967.4 ± 1.2 kg/m3
mass density (13878 kPa): 967.4 ± 1.2 kg/m3
mass density (13960 kPa): 967.5 ± 1.2 kg/m3
mass density (14011 kPa): 967.6 ± 1.2 kg/m3
mass density (14041 kPa): 967.5 ± 1.2 kg/m3
mass density (14066 kPa): 967.5 ± 1.2 kg/m3
mass density (14096 kPa): 967.6 ± 1.2 kg/m3
mass density (14122 kPa): 967.7 ± 1.2 kg/m3
mass density (14146 kPa): 967.7 ± 1.2 kg/m3
mass density (14176 kPa): 967.7 ± 1.2 kg/m3
mass density (14201 kPa): 967.5 ± 1.2 kg/m3
mass density (14227 kPa): 967.6 ± 1.2 kg/m3
mass density (14310 kPa): 967.7 ± 1.2 kg/m3
mass density (14444 kPa): 967.9 ± 1.2 kg/m3
mass density (14501 kPa): 967.9 ± 1.2 kg/m3
mass density (14527 kPa): 967.9 ± 1.2 kg/m3
mass density (14558 kPa): 967.9 ± 1.2 kg/m3
mass density (14584 kPa): 967.8 ± 1.2 kg/m3
mass density (14611 kPa): 967.9 ± 1.2 kg/m3
mass density (14643 kPa): 967.9 ± 1.2 kg/m3
mass density (14670 kPa): 968 ± 1.2 kg/m3
mass density (14696 kPa): 968 ± 1.2 kg/m3
mass density (14723 kPa): 967.9 ± 1.2 kg/m3
mass density (14870 kPa): 968.1 ± 1.2 kg/m3
mass density (14897 kPa): 968.1 ± 1.2 kg/m3
mass density (14930 kPa): 968.2 ± 1.2 kg/m3
mass density (14958 kPa): 968.2 ± 1.2 kg/m3
mass density (14985 kPa): 968.3 ± 1.2 kg/m3
mass density (15019 kPa): 968.2 ± 1.2 kg/m3
mass density (15047 kPa): 968.3 ± 1.2 kg/m3
mass density (15080 kPa): 968.3 ± 1.2 kg/m3
mass density (15108 kPa): 968.2 ± 1.2 kg/m3
mass density (15136 kPa): 968.3 ± 1.2 kg/m3
mass density (15164 kPa): 968.3 ± 1.2 kg/m3
mass density (15198 kPa): 968.4 ± 1.2 kg/m3
mass density (15226 kPa): 968.5 ± 1.2 kg/m3
mass density (15255 kPa): 968.4 ± 1.2 kg/m3
mass density (15642 kPa): 968.6 ± 1.2 kg/m3
mass density (15668 kPa): 968.6 ± 1.2 kg/m3
mass density (15694 kPa): 968.7 ± 1.2 kg/m3
mass density (15725 kPa): 968.7 ± 1.2 kg/m3
mass density (15751 kPa): 968.8 ± 1.2 kg/m3
mass density (15777 kPa): 968.7 ± 1.2 kg/m3
mass density (15808 kPa): 968.8 ± 1.2 kg/m3
mass density (15834 kPa): 968.8 ± 1.2 kg/m3
mass density (15864 kPa): 968.9 ± 1.2 kg/m3
mass density (15891 kPa): 968.9 ± 1.2 kg/m3
mass density (15916 kPa): 968.8 ± 1.2 kg/m3
mass density (15943 kPa): 969 ± 1.2 kg/m3
mass density (15974 kPa): 968.8 ± 1.2 kg/m3
mass density (16000 kPa): 969 ± 1.2 kg/m3
mass density (16057 kPa): 969 ± 1.2 kg/m3
mass density (16359 kPa): 969 ± 1.2 kg/m3
mass density (16386 kPa): 969.2 ± 1.2 kg/m3
mass density (16412 kPa): 969.2 ± 1.2 kg/m3
mass density (16439 kPa): 969.4 ± 1.2 kg/m3
mass density (16472 kPa): 969.2 ± 1.2 kg/m3
mass density (16494 kPa): 969.2 ± 1.2 kg/m3
mass density (16872 kPa): 969.5 ± 1.2 kg/m3
mass density (16899 kPa): 969.5 ± 1.2 kg/m3
mass density (16931 kPa): 969.5 ± 1.2 kg/m3
mass density (16957 kPa): 969.5 ± 1.2 kg/m3
mass density (16982 kPa): 969.7 ± 1.2 kg/m3
mass density (17013 kPa): 969.6 ± 1.2 kg/m3
mass density (17038 kPa): 969.6 ± 1.2 kg/m3
mass density (17064 kPa): 969.6 ± 1.2 kg/m3
mass density (17094 kPa): 969.8 ± 1.2 kg/m3
mass density (17120 kPa): 969.7 ± 1.2 kg/m3
mass density (17146 kPa): 969.7 ± 1.2 kg/m3
mass density (17177 kPa): 969.8 ± 1.2 kg/m3
mass density (17203 kPa): 969.7 ± 1.2 kg/m3
mass density (17229 kPa): 969.8 ± 1.2 kg/m3
mass density (17260 kPa): 969.7 ± 1.2 kg/m3
mass density (17286 kPa): 969.9 ± 1.2 kg/m3
mass density (17312 kPa): 969.7 ± 1.2 kg/m3
mass density (17344 kPa): 969.7 ± 1.2 kg/m3
mass density (17371 kPa): 969.9 ± 1.2 kg/m3
mass density (17398 kPa): 969.9 ± 1.2 kg/m3
mass density (17430 kPa): 969.9 ± 1.2 kg/m3
mass density (19111 kPa): 971.1 ± 1.2 kg/m3
mass density (19142 kPa): 970.9 ± 1.2 kg/m3
mass density (19168 kPa): 971.1 ± 1.2 kg/m3
mass density (19194 kPa): 971.2 ± 1.2 kg/m3
mass density (19226 kPa): 971.2 ± 1.2 kg/m3
mass density (19252 kPa): 971.1 ± 1.2 kg/m3
mass density (19282 kPa): 971.1 ± 1.2 kg/m3
mass density (19307 kPa): 971.2 ± 1.2 kg/m3
mass density (19331 kPa): 971.4 ± 1.2 kg/m3
mass density (19353 kPa): 971.2 ± 1.2 kg/m3
mass density (19375 kPa): 971.2 ± 1.2 kg/m3
mass density (19400 kPa): 971.3 ± 1.2 kg/m3
mass density (19422 kPa): 971.2 ± 1.2 kg/m3
mass density (19443 kPa): 971.3 ± 1.2 kg/m3
mass density (19469 kPa): 971.4 ± 1.2 kg/m3
mass density (19491 kPa): 971.3 ± 1.2 kg/m3
mass density (19512 kPa): 971.3 ± 1.2 kg/m3
mass density (19539 kPa): 971.3 ± 1.2 kg/m3
mass density (19561 kPa): 971.4 ± 1.2 kg/m3
mass density (19583 kPa): 971.4 ± 1.2 kg/m3
mass density (19609 kPa): 971.4 ± 1.2 kg/m3
mass density (19868 kPa): 971.6 ± 1.2 kg/m3
mass density (19886 kPa): 971.6 ± 1.2 kg/m3
mass density (19908 kPa): 971.6 ± 1.2 kg/m3
mass density (19925 kPa): 971.7 ± 1.2 kg/m3
mass density (19941 kPa): 971.7 ± 1.2 kg/m3
